Laboratory results from patent US20210284742A1, “METHODS OF TREATING OR PREVENTING MUCORMYCOSIS” (University of Maryland, Baltimore, priority 2018, published 2021).

Tests used:
[1] = test system: A549 alveolar epithelial cells infected with R. delemar spores; assay: Measurement of host cell endocytosis of R. delemar by A549 cells (Uvitex differential fluorescence); format: cell-based, human; settings: for ability of A549 cells to endocytose R. delemar spores: Ahr inhibitor or Src inhibitor
Method: Measurement of host cell endocytosis. 12-mm glass coverslips were seeded with A549 alveolar epithelial cells. […] For controls, host cells will be incubated with DMSO (the solvent used to reconstitute the inhibitor) or 25 μg/ml mouse IgG antibody in parallel. Host cells were then infected with 2×10^5 R. delemar spores. After incubation for 3 h, cells were fixed in 3% paraformaldehyde and stained for 1 h with 1% Uvitex, which specifically binds to chitin in the fungal cell wall. After washing with PBS, coverslips were mounted on a glass slide with a drop of ProLong Gold anti-fade reagent (Molecular Probes) and sealed. The total number of cell-associated organisms (i.e. fungi adhering to the monolayer) per high-powered field were determined by phase-contrast microscopy. The same field will be examined by epifluorescence microscopy, and the number of brightly fluorescent, uninternalized fungi were determined. The number of endocytosed organisms was calculated by subtracting the number of fluorescent fungi from the total number of visible fungi. At least 400 organisms were counted per treatment group in at least 15 different fields per coverslip. Experiments were performed in duplicate or triplicate on at least two separate days.
12-mm glass coverslips in 12 well dishes will be seeded with A549 alveolar epithelial cells. Cells were then pre-treated 1 h with inhibitors. For controls, host cells were incubated with the appropriate amount of diluent used to reconstitute the inhibitor in parallel. Host cells were then infected with 2×10^6 Rdelemar. After incubation for 3 h, cells were fixed in 3% paraformaldehyde and stained for 1 h with 1% Uvitex, which specifically binds to chitin in the fungal cell wall. After washing with PBS, coverslips were mounted on a glass slide with a drop of ProLong Gold anti-fade reagent (Molecular Probes) and sealed. The total number of cell-associated organisms (i.e., fungi adhering to the monolayer) per high-powered field was determined by phase-contrast microscopy. The same exact field was examined by epifluorescence microscopy, and the number of brightly fluorescent, uninternalized fungi will be determined. The number of endocytosed organisms is calculated by subtracting the number of fluorescent organisms from the total number of visible organisms. At least 400 organisms were counted in at least 15 different fields per coverslip. Experiments were performed in duplicate on separate days. Data will be expressed as median f interquartile range.

[2] = test system: A549 cells infected with R. delemar; assay: R. delemar-induced A549 cell damage (Pierce LDH assay); format: cell-based, human; settings: for R. delemar-induced damage of A549 alveolar epithelial cells (LDH assay): pre-treated 1 h, inhibitors present throughout, Inh III 10, AG1478 10 μM, AG825 50 μM, 24 h infection (FIG. 6)
Method: Measurement of R. delemar-induced host cell damage. R. delemar-induced A549 cell damage was quantified using the Pierce LDH Assay with slight modifications to the manufacturer's protocol. Briefly, A549 cells were grown in 96-well tissue culture plates for 18-24 hours. […] For controls, host cells will be incubated with DMSO (the solvent used to reconstitute the inhibitor) or 25 μg/ml of mouse IgG antibody in parallel. After 24 hours of incubation at 37° C., 50 μl of the cell culture supernatant was collected from uninfected, infected, and fungi-only control wells and transferred to a 96 well plate to assay for LDH activity. Lysis buffer was added to all infected wells and incubated for 45 min at 37° C. After lysis, 50 μl of cell culture supernatant was transferred to a 96 well plate and used for the LDH Assay Kit per protocol. LDH release was calculated as follows: % Cytotoxicity=[Experimental release−Fungal Cells Spontaneous Control−Host Cells Spontaneous Control]/[Host Cell Maximum Control−Fungal Cells Maximum Control−Host Cells Spontaneous Control]×100. LDH is a cytosolic enzyme but will be released into the cell culture medium upon cell membrane damage. The amount of extracellular LDH is proportional to the amount of cell damage.
(§1) R. delemar-induced A549 cell damage was quantified using the Pierce LDH assay, with slight modifications to the manufacturer's protocol. Briefly, A549 cells were grown in 96-well tissue culture plates for 18 to 24 h. Cells were then pretreated for 1 h with inhibitor and infected with 1×10^6-2×10^6 germlings suspended in 150 μl F-12K plus 10% FBS. For controls, host cells were incubated with the appropriate amount of diluent used to reconstitute the in parallel. After 24 h of incubation at 37° C., 50 μl of the cell culture supernatant was collected from uninfected, infected, and fungus-only control wells and transferred to a 96-well plate to assay for LDH activity. Lysis buffer was added to all infected wells, and the mixture was incubated for 45 min at 37° C. After lysis, 50 μl of cell culture supernatant was transferred to a 96-well plate and used for the LDH assay kit per the protocol. LDH release was calculated as follows: % cytotoxicity=[(experimental release−fungal cell spontaneous control−host cell spontaneous control)/(host cell maximum control−fungal cell maximum control−host cell spontaneous control)]×100. LDH is a cytosolic enzyme but will be released into the cell culture medium upon cell membrane damage. The amount of extracellular LDH is proportional to the amount of cell damage.

[3] = test system: A549 cells infected with R. oryzae; assay: R. oryzae-induced damage of A549 cells (LDH assay); format: cell-based, human; settings: 25 μM Mifepristone overnight and/or 25 μM Gefitinib 1 h, 24 h infection (FIG. 14)
Method: as §1, with “Cells were then pretreated for 1 h with inhibitor and infected with 1×10^6-2×10^6 germlings suspended in 150 μl F-12K plus 10% FBS.” left out

[4] = test system: A549 cells infected with M. circinelloides; assay: M. circinelloides-induced damage of A549 cells (LDH assay); format: cell-based, human; settings: 25 μM Mifepristone overnight and/or 25 μM Gefitinib 1 h, 24 h infection (FIG. 14)
[5] = test system: A549 cells infected with L. corymbifera; assay: L. corymbifera-induced damage of A549 cells (LDH assay); format: cell-based, human; settings: 25 μM Mifepristone overnight and/or 25 μM Gefitinib 1 h, 24 h infection (FIG. 14)
[6] = test system: A549 cells infected with C. bertholletiae; assay: C. bertholletiae-induced damage of A549 cells (LDH assay); format: cell-based, human; settings: 25 μM Mifepristone overnight and/or 25 μM Gefitinib 1 h, 24 h infection (FIG. 14)
[7] = test system: HUVECs infected with R. delemar; settings: inhibition of PDGFR phosphorylation; cited from earlier work
R. delemar = assay: Neutropenic mouse model of pulmonary mucormycosis, survival; format: in vivo, mice
Method: Murine models of Mucormycosis. Male ICR mice (20-25 g from Envigo) were immunosuppresed by cyclophosphamide (200 mg/kg administered intraperotenually [i.p]) and cortisone acetate (500 mg/kg, adminstered subcutaneously) given on days −2, +3, and +9 relative to infection. […] To control for bacterial infection, immunosuppressed mice received 50 mg/L Baytrial (enrofloxacin: Bayer, Leverkusen, Germany) ad libitum on Day −3 thorough Day 0, after which Baytril was replaced with daily ceftazidime (5 mg/mouse) treatment adminstered subcutaneously through day+13 days post infection. Mice were infected with 2.5×10^5 spores of R. delemar 99-880 in 25 μL PBS given intratracheally as previously described (Luo G, Gebremariam T, Lee H, French S W, Wiederhold N P, Patterson T F, Filler S G, Ibrahim A S. 2013. Efficacy of liposomal amphotericin B and posaconazole in intratracheal models of murine mucormycosis. Antimicrobial agents and chemotherapy 57:3340-7). […] Placebo mice received DMA:PEG300. Survival of mice served as the primary endpoint with moribund mice humanely euthanized. To determine effect of treatment on tissue fungal burden mice were immunosuppressed and infected as above. Gefitinib treatment started 4 post infection and continued through Day +3. On Day +4, mice were sacrificed and lungs and brains, representing primary and secondary target organs (Luo G, Gebremariam T, Lee H, French S W, Wiederhold N P, Patterson T F, Filler S G, Ibrahim A S. 2013. Efficacy of liposomal amphotericin B and posaconazole in intratracheal models of murine mucormycosis. Antimicrobial agents and chemotherapy 57:3340-7), were collected and processed for tissue fungal burden by qPCR (Ibrahim A S, Bowman J C, Avanessian V, Brown K, Spellberg B, Edwards J E, Jr., Douglas C M. 2005. Caspofungin inhibits Rhizopus oryzae 1,3-beta-D-glucan synthase, lowers burden in brain measured by quantitative PCR, and improves survival at a low but not a high dose during murine disseminated zygomycosis. Antimicrobial agents and chemotherapy 49:721-7.) Values are expressed as Log10 spore equivalents per gram tissue.
Statistical Analyses. In vitro experiments were performed in triplicate on two or three separate days. Data were expressed as median±interquartile range. Treatment groups were compared to controls using the Wilcoxon rank-sum test and P values <0.05 were considered significant. For the murine studies, survival of mice was analyzed using the Log Rank test, whereas differences in tissue fungal burden were analyzed by the Wilcoxon Rank Sum test using Graph pad Prism 6. P values of <0.05 were considered significant.

## Src Kinase Inhibitor I I
[1]
  ability of A549 cells to endocytose R. delemar spores: Neither of the inhibitors altered

## CC#C[C@]1(O)CC[C@H]2[C@@H]3CCC4=CC(=O)CCC4=C3[C@@H](c3ccc(N(C)C)cc3)C[C@@]21C [Mifepristone]
[1]; Example 3, 25 μM Mifepristone overnight and/or 25 μM Gefitinib 1 h, 3 h infection (FIG. 13)
  R. delemar invasion / endocytosis: reduction
[2]; Example 3, Mifepristone 25 / Gefitinib 25, 24 h infection, vs vehicle (FIG. 12)
  R. delemar-induced damage of alveolar epithelial cells (LDH assay): decrease
[3]
  R. oryzae-induced damage: a significant decrease in damage was not seen
[4]
  M. circinelloides-induced damage: a significant decrease in damage was not seen
[5]
  L. corymbifera-induced damage: significantly decreased
[6]
  C. bertholletiae-induced damage: a significant decrease in damage was not seen

## COc1cc(/C=C(\C#N)C(N)=O)cc(CSc2nc3ccccc3s2)c1O [AG825]
[2]
  R. delemar-induced damage of A549 alveolar epithelial cells (LDH assay): greater reduction in damage

## COc1cc2ncnc(N3CCN(C(=O)Nc4ccc(Oc5ccccc5)cc4)CC3)c2cc1OC [PDGFR tyrosine kinase inhibitor III]
[2]
  R. delemar-induced damage of A549 alveolar epithelial cells (LDH assay): modestly but significantly reduces
[7]
  R. delemar-induced damage of HUVECs: significantly reduces

## COc1cc2ncnc(Nc3cccc(Cl)c3)c2cc1OC [AG1478]
[2]
  R. delemar-induced damage of A549 alveolar epithelial cells (LDH assay): greater reduction in damage

## CC[C@@H]([C@H](C)O)n1ncn(-c2ccc(N3CCN(c4ccc(OC[C@@H]5CO[C@@](Cn6cncn6)(c6ccc(F)cc6F)C5)cc4)CC3)cc2)c1=O [posaconazole]
R. delemar; delayed treatment beginning 30 h post infection for 6 consecutive days, 10 mg/kg gefitinib, 20 mg/kg posaconazole or both
  18-day survival: 0%
R. delemar; treatment delayed for 30 h post infection, administered alone
  protection from pulmonary mucormycosis, delayed administration: did not

## Cc1ccccc1N=Nc1ccc(NC(=O)c2ccnn2C)c(C)c1 [CH-223191]
[1]
  ability of A549 cells to endocytose R. delemar spores: Neither of the inhibitors altered

## EGF [epidermal growth factor, EGFR ligand]
[2]; A549 cells pretreated (and cotreated) with EGF 1 h prior to 24 h infection (FIG. 15)
  R. delemar-induced damage with EGF addition (LDH assay): no increase in damage was observed
